Reference: PubChem BioAssay (NCI)
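The concentration for 50% growth inhibition is given as GI50. TGI marks complete inhibition of growth.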

What was measured:
Assay in all cases: inhibition of tumour cell growth, NCI panel, 384-well format
U251 glioblastoma = tested on: U251 glioblastoma
SK-MEL-5 melanoma = tested on: SK-MEL-5 melanoma
HOP-62 NSCLC = tested on: HOP-62 NSCLC
T-47D breast = tested on: T-47D breast
KM12 colon = tested on: KM12 colon
NCI-H226 lung = tested on: NCI-H226 lung
IGROV1 ovarian = tested on: IGROV1 ovarian
LOX IMVI melanoma = tested on: LOX IMVI melanoma
RPMI-8226 leukemia = tested on: RPMI-8226 leukemia
OVCAR-8 ovarian = tested on: OVCAR-8 ovarian
HCC-2998 colon = tested on: HCC-2998 colon
786-0 renal = tested on: 786-0 renal
NCI-H322M lung = tested on: NCI-H322M lung
K-562 leukemia = tested on: K-562 leukemia
A549 NSCLC = tested on: A549 NSCLC
HCT-15 colon = tested on: HCT-15 colon
OVCAR-4 ovarian = tested on: OVCAR-4 ovarian
MALME-3M melanoma = tested on: MALME-3M melanoma
MCF7 breast = tested on: MCF7 breast
HCT-116 colon = tested on: HCT-116 colon
MDA-MB-468 breast = tested on: MDA-MB-468 breast
OVCAR-3 ovarian = tested on: OVCAR-3 ovarian
SK-MEL-2 melanoma = tested on: SK-MEL-2 melanoma
M14 melanoma = tested on: M14 melanoma
SK-MEL-28 melanoma = tested on: SK-MEL-28 melanoma
SK-OV-3 ovarian = tested on: SK-OV-3 ovarian
PC-3 prostate = tested on: PC-3 prostate
NCI/ADR-RES ovarian = tested on: NCI/ADR-RES ovarian
OVCAR-5 ovarian = tested on: OVCAR-5 ovarian
MDA-MB-435 melanoma = tested on: MDA-MB-435 melanoma
EKVX NSCLC = tested on: EKVX NSCLC
HL-60(TB) leukemia = tested on: HL-60(TB) leukemia
SW-620 colon = tested on: SW-620 colon
A498 renal = tested on: A498 renal
NCI-H522 lung = tested on: NCI-H522 lung
SF-539 CNS = tested on: SF-539 CNS
SR leukemia = tested on: SR leukemia
MOLT-4 leukemia = tested on: MOLT-4 leukemia
DU-145 prostate = tested on: DU-145 prostate
CCRF-CEM leukemia = tested on: CCRF-CEM leukemia
NCI-H23 lung = tested on: NCI-H23 lung
SNB-19 CNS = tested on: SNB-19 CNS
HOP-92 NSCLC = tested on: HOP-92 NSCLC
COLO 205 colon = tested on: COLO 205 colon
HS 578T breast = tested on: HS 578T breast
ACHN renal = tested on: ACHN renal
BT-549 breast = tested on: BT-549 breast

SMILES: C[C@H]1C[C@@H](n2c(Nc3ccc(OC(F)(F)F)cc3)nc3cc(CCC(=O)O)ccc32)CC(C)(C)C1
- GI50 (U251 glioblastoma): 9.69 µM
- TGI (U251 glioblastoma): 22.5 µM
- GI50 (SK-MEL-5 melanoma): 14.2 µM
- TGI (SK-MEL-5 melanoma): 27.3 µM
- GI50 (HOP-62 NSCLC): 12.2 µM
- TGI (HOP-62 NSCLC): 24.7 µM
- GI50 (T-47D breast): 13.5 µM
- TGI (T-47D breast): 27.6 µM
- GI50 (KM12 colon): 13.8 µM
- TGI (KM12 colon): 26.9 µM
- GI50 (NCI-H226 lung): 16.2 µM
- TGI (NCI-H226 lung): 29.8 µM
- GI50 (IGROV1 ovarian): 12.7 µM
- TGI (IGROV1 ovarian): 25.4 µM
- GI50 (LOX IMVI melanoma): 16.7 µM
- TGI (LOX IMVI melanoma): 30.5 µM
- GI50 (RPMI-8226 leukemia): 4.46 µM
- TGI (RPMI-8226 leukemia): 11.4 µM
- GI50 (OVCAR-8 ovarian): 9.58 µM
- TGI (OVCAR-8 ovarian): 22 µM
- GI50 (HCC-2998 colon): 14.1 µM
- TGI (HCC-2998 colon): 27.1 µM
- GI50 ([…]-0 renal): 13.8 µM
- TGI (786-0 renal): 26.8 µM
- GI50 (NCI-H322M lung): 17 µM
- TGI (NCI-H322M lung): 30.9 µM
- GI50 (K-562 leukemia): 12.2 µM
- TGI (K-562 leukemia): 24.9 µM
- GI50 (A549 NSCLC): 7.54 µM
- TGI (A549 NSCLC): 20.2 µM
- GI50 (HCT-15 colon): 13.9 µM
- TGI (HCT-15 colon): 27.1 µM
- GI50 (OVCAR-4 ovarian): 13.1 µM
- TGI (OVCAR-4 ovarian): 25.9 µM
- GI50 (MALME-3M melanoma): 18.3 µM
- TGI (MALME-3M melanoma): 32.4 µM
- TGI (MCF7 breast): 19.2 µM
- GI50 (HCT-116 colon): 12.2 µM
- TGI (HCT-116 colon): 24.9 µM
- GI50 (MDA-MB-468 breast): 13.7 µM
- TGI (MDA-MB-468 breast): 28.7 µM
- GI50 (OVCAR-3 ovarian): 9.71 µM
- TGI (OVCAR-3 ovarian): 22.5 µM
- GI50 (SK-MEL-2 melanoma): 17.9 µM
- TGI (SK-MEL-2 melanoma): 31.8 µM
- GI50 (M14 melanoma): 15.4 µM
- TGI (M14 melanoma): 28.9 µM
- GI50 (SK-MEL-28 melanoma): 14.3 µM
- TGI (SK-MEL-28 melanoma): 27.5 µM
- GI50 (SK-OV-3 ovarian): 18.2 µM
- TGI (SK-OV-3 ovarian): 32.2 µM
- GI50 (PC-3 prostate): 13.7 µM
- TGI (PC-3 prostate): 26.8 µM
- GI50 (NCI/ADR-RES ovarian): 16.1 µM
- TGI (NCI/ADR-RES ovarian): 29.8 µM
- GI50 (OVCAR-5 ovarian): 17.2 µM
- TGI (OVCAR-5 ovarian): 31.1 µM
- GI50 (MDA-MB-435 melanoma): 14.9 µM
- TGI (MDA-MB-435 melanoma): 28.3 µM
- GI50 (EKVX NSCLC): 14.6 µM
- TGI (EKVX NSCLC): 27.9 µM
- GI50 (HL-60(TB) leukemia): 8.07 µM
- TGI (HL-60(TB) leukemia): 17.7 µM
- GI50 (SW-620 colon): 14.6 µM
- TGI (SW-620 colon): 27.9 µM
- GI50 (A498 renal): 13.3 µM
- TGI (A498 renal): 26.2 µM
- GI50 (NCI-H522 lung): 16.5 µM
- TGI (NCI-H522 lung): 30.1 µM
- GI50 (SF-539 CNS): 14.5 µM
- TGI (SF-539 CNS): 27.7 µM
- GI50 (SR leukemia): 7 µM
- TGI (SR leukemia): 20 µM
- GI50 (MOLT-4 leukemia): 5.49 µM
- TGI (MOLT-4 leukemia): 17.4 µM
- GI50 (DU-145 prostate): 11.8 µM
- TGI (DU-145 prostate): 24.2 µM
- GI50 (CCRF-CEM leukemia): 11.9 µM
- TGI (CCRF-CEM leukemia): 24.3 µM
- GI50 (NCI-H23 lung): 14.6 µM
- TGI (NCI-H23 lung): 27.9 µM
- GI50 (SNB-19 CNS): 12.5 µM
- TGI (SNB-19 CNS): 25.1 µM
- GI50 (HOP-92 NSCLC): 16 µM
- TGI (HOP-92 NSCLC): 29.5 µM
- GI50 (COLO 205 colon): 17.5 µM
- TGI (COLO 205 colon): 31.5 µM
- GI50 (HS 578T breast): 11 µM
- TGI (HS 578T breast): 23.1 µM
- GI50 (ACHN renal): 15.5 µM
- TGI (ACHN renal): 30.8 µM
- GI50 (BT-549 breast): 13 µM
- TGI (BT-549 breast): 25.8 µM
